Source: patent publication US10899759B2, “Positive allosteric modulators of the muscarinic acetylcholine receptor M1” (Vanderbilt University, priority 2016, dated 2021)

Molecular target: T1, human mAChR M1 (Homo sapiens, UniProt P11229)
T1 construct: host or cells: CHO-K1
T1 sequence (P11229 1-460): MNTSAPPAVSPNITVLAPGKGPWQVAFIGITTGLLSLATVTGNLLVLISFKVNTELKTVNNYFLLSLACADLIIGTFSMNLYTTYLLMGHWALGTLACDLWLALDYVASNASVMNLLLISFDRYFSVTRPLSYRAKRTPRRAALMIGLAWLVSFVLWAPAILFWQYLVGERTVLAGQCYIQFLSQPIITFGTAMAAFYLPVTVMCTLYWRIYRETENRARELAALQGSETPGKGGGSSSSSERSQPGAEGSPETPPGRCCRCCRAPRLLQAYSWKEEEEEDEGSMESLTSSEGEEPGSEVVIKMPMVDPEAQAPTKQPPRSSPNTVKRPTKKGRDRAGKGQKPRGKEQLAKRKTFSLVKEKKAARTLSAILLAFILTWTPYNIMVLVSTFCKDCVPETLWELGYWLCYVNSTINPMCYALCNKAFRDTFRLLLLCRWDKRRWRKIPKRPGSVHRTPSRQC
Test: mAChR M1 cell-based functional assay (calcium mobilization, Fluo-4, FDSS)
Conditions: CHO-K1 cells stably expressing hM1; for Emax: EC20 acetylcholine response, read-out: Human M1 Emax; for EC50: positive allosteric modulator activity as increase in the EC20 acetylcholine response
Procedure, shortened: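 CHO-K1 cells stably expressing muscarinic receptor, loaded with Fluo-4; 11-point 1:3 compound series added and calcium flux read over 300 s at 1 Hz. Agonism from direct calcium rise, PAM activity as potentiation of EC20 acetylcholine, antagonism as decrease of EC80 acetylcholine; four-parameter logistic fits.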

Structure (SMILES)	Emax	EC50
CC1(C)CC(NC(=O)c2cc(Cc3ccc(-n4cccn4)cc3)c3ccsc3n2)CCO1 (centres unmarked) [Compound 72, N-(2,2-dimethyltetrahydropyran-4-yl)-4-[(4-pyrazol-1-ylphenyl)methyl]thieno[2,3-b]pyridine-6-carboxamide]	69%	1420 nM
CC1CC(NC(=O)c2cc(Cc3ccc(-n4cccn4)cc3)c3ccsc3n2)CC(C)O1 (centres unmarked) [Compound 73, N-(2,6-dimethyltetrahydropyran-4-yl)-4-[(4-pyrazol-1-ylphenyl)methyl]thieno[2,3-b]pyridine-6-carboxamide]	68.1%	370 nM
CC1(C)COCCC1NC(=O)c1cc(Cc2ccc(-n3cccn3)cc2)c2ccsc2n1 (centres unmarked) [Compound 74, N-(3,3-dimethyltetrahydropyran-4-yl)-4-[(4-pyrazol-1-ylphenyl)methyl]thieno[2,3-b]pyridine-6-carboxamide]	69.1%	1290 nM
CC1COCCC1NC(=O)c1cc(Cc2ccc(-n3cccn3)cc2)c2ccsc2n1 (centres unmarked) [Compound 75]	60.7%	490 nM
O=C(NCC1CCOCC1)c1cc(Cc2ccc(-n3cccn3)cc2)c2ccsc2n1 [Compound 76, 4-[(4-pyrazol-1-ylphenyl)methyl]-N-(tetrahydropyran-4-ylmethyl)thieno[2,3-b]pyridine-6-carboxamide]	68.8%	420 nM
O=C(N[C@H]1CCOC1)c1cc(Cc2ccc(-n3cccn3)cc2)c2ccsc2n1 [Compound 77, 4-[(4-pyrazol-1-ylphenyl)methyl]-N-[(3S)-tetrahydrofuran-3-yl]thieno[2,3-b]pyridine-6-carboxamide]	69.6%	390 nM
O=C(N[C@@H]1CCOC1)c1cc(Cc2ccc(-n3cccn3)cc2)c2ccsc2n1 [Compound 78, 4-[(4-pyrazol-1-ylphenyl)methyl]-N-[(3R)-tetrahydrofuran-3-yl]thieno[2,3-b]pyridine-6-carboxamide]	68.5%	1720 nM
O=C(NCC1CCOC1)c1cc(Cc2ccc(-n3cccn3)cc2)c2ccsc2n1 (centres unmarked) [Compound 79, 4-[(4-pyrazol-1-ylphenyl)methyl]-N-(tetrahydrofuran-3-ylmethyl)thieno[2,3-b]pyridine-6-carboxamide]	65.6%	2080 nM
O=C(NC1CC2(COC2)C1)c1cc(Cc2ccc(-n3cccn3)cc2)c2ccsc2n1 [Compound 80, N-(2-oxaspiro[3.3]heptan-6-yl)-4-[(4-pyrazol-1-ylphenyl)methyl]thieno[2,3-b]pyridine-6-carboxamide]	72.3%	430 nM
O=C(NC1COC1)c1cc(Cc2ccc(-n3cccn3)cc2)c2ccsc2n1 [Compound 81, N-(oxetan-3-yl)-4-[(4-pyrazol-1-ylphenyl)methyl]thieno[2,3-b]pyridine-6-carboxamide]	69.4%	190 nM
O=C(NC1CC(F)C1)c1cc(Cc2ccc(-n3cccn3)cc2)c2ccsc2n1 (centres unmarked) [Compound 82]	69.6%	2090 nM
O=C(NC1CC(F)(F)C1)c1cc(Cc2ccc(-n3cccn3)cc2)c2ccsc2n1 [Compound 83, N-(3,3-difluorocyclobutyl)-4-[(4-pyrazol-1-ylphenyl)methyl]thieno[2,3-b]pyridine-6-carboxamide]	74.8%	1770 nM
O=C(NCC1CCN1)c1cc(Cc2ccc(-n3cccn3)cc2)c2ccsc2n1 (centres unmarked) [Compound 84, N-(azetidin-2-ylmethyl)-4-[(4-pyrazol-1-ylphenyl)methyl]thieno[2,3-b]pyridine-6-carboxamide]	42.7%	1080 nM
COCCNC(=O)c1cc(Cc2ccc(-n3cccn3)cc2)c2ccsc2n1 [Compound 85, N-(2-methoxyethyl)-4-[(4-pyrazol-1-ylphenyl)methyl]thieno[2,3-b]pyridine-6-carboxamide]	58.6%	70 nM
COCC(C)NC(=O)c1cc(Cc2ccc(-n3cccn3)cc2)c2ccsc2n1 (centres unmarked) [Compound 86, N-(2-methoxy-1-methyl-ethyl)-4-[(4-pyrazol-1-ylphenyl)methyl]thieno[2,3-b]pyridine-6-carboxamide]	62%	690 nM
Cn1ccc(-c2ccc(Cc3cc(C(=O)NC4CCOCC4)nc4sccc34)cc2)n1 [Compound 87, 4-[[4-(1-methylpyrazol-3-yl)phenyl]methyl]-N-tetrahydropyran-4-yl-thieno[2,3-b]pyridine-6-carboxamide]	60.4%	2130 nM
Cn1ccc(-c2ccc(Cc3cc(C(=O)N[C@H]4CCCC[C@@H]4O)nc4sccc34)cc2)n1 [Compound 88, N-[(1S,2S)-2-hydroxycyclohexyl]-4-[[4-(1-methylpyrazol-3-yl)phenyl]methyl]thieno[2,3-b]pyridine-6-carboxamide]	62.4%	50 nM
Cn1ccc(-c2ccc(Cc3cc(C(=O)N[C@H]4CCOC[C@@H]4O)nc4sccc34)cc2)n1 [Compound 89, N-[(3R,4S)-3-hydroxytetrahydropyran-4-yl]-4-[[4-(1-methylpyrazol-3-yl)phenyl]methyl]thieno[2,3-b]pyridine-6-carboxamide]	41.2%	40 nM
Cn1ccc(-c2ccc(Cc3cc(C(=O)NC4CCOC(C)(C)C4)nc4sccc34)cc2)n1 (centres unmarked) [Compound 90, N-(2,2-dimethyltetrahydropyran-4-yl)-4-[[4-(1-methylpyrazol-3-yl)phenyl]methyl]thieno[2,3-b]pyridine-6-carboxamide]	36.4%	10 nM
CC1CC(NC(=O)c2cc(Cc3ccc(-c4ccn(C)n4)cc3)c3ccsc3n2)CC(C)O1 (centres unmarked) [Compound 91, N-(2,6-dimethyltetrahydropyran-4-yl)-4-[[4-(1-methylpyrazol-3-yl)phenyl]methyl]thieno[2,3-b]pyridine-6-carboxamide]	56.2%	520 nM
Cn1ccc(-c2ccc(Cc3cc(C(=O)NC4CCOCC4(C)C)nc4sccc34)cc2)n1 (centres unmarked) [Compound 92, N-(3,3-dimethyltetrahydropyran-4-yl)-4-[[4-(1-methylpyrazol-3-yl)phenyl]methyl]thieno[2,3-b]pyridine-6-carboxamide]	61.6%	1180 nM
CC1COCCC1NC(=O)c1cc(Cc2ccc(-c3ccn(C)n3)cc2)c2ccsc2n1 (centres unmarked) [Compound 93, 4-[[4-(1-methylpyrazol-3-yl)phenyl]methyl]-N-(3-methyltetrahydropyran-4-yl)thieno[2,3-b]pyridine-6-carboxamide]	59.5%	740 nM
Cn1ccc(-c2ccc(Cc3cc(C(=O)NCC4CCOCC4)nc4sccc34)cc2)n1 [Compound 94, 4-[[4-(1-methylpyrazol-3-yl)phenyl]methyl]-N-(tetrahydropyran-4-ylmethyl)thieno[2,3-b]pyridine-6-carboxamide]	61.4%	630 nM
Cn1ccc(-c2ccc(Cc3cc(C(=O)NCC4CCOC4)nc4sccc34)cc2)n1 (centres unmarked) [Compound 95, 4-[[4-(1-methylpyrazol-3-yl)phenyl]methyl]-N-(tetrahydrofuran-3-ylmethyl)thieno[2,3-b]pyridine-6-carboxamide]	65.5%	370 nM
Cn1ccc(-c2ccc(Cc3cc(C(=O)NC4CC5(COC5)C4)nc4sccc34)cc2)n1 [Compound 96, 4-[[4-(1-methylpyrazol-3-yl)phenyl]methyl]-N-(2-oxaspiro[3.3]heptan-6-yl)thieno[2,3-b]pyridine-6-carboxamide]	69.9%	280 nM
